For two compounds, ocular hypotensive effect results are on record in patent publication US6670485B2, “Prostanoic acid derivatives as agents for lowering intraocular pressure” (Allergan, Inc., priority 2001, dated 2003).

The test system of assay [1] is Dog intraocular pressure. The assay is described as follows: Intraocular pressure in dogs by applanation pneumatonometry. Type of assay: in vivo. To be noted: 25 μl to the ocular surface, contralateral eye vehicle, IOP before drug administration and at 6 hours thereafter. As to the method: The effects of the compounds of this invention on intraocular pressure are also measured. The compounds are prepared at the said concentrations in a vehicle comprising 0.1% polysorbate 80 and 10 mM TRIS base. Dogs are treated by administering 25 μl to the ocular surface, the contralateral eye received vehicle as a control. Intraocular pressure is measured by applanation pneumatonometry. Dog intraocular pressure is measured immediately before drug administration and at 6 hours thereafter.

Assay [2] has as its system intraocular pressure. The experiment in a line: Intraocular pressure in glaucomatous cynomolgus monkeys. Type of assay: in vivo. Conditions: glaucomatous cynomonlgus monkeys.

Regarding `C=CCOC(=O)CCC/C=C\C[C@H]1C(=O)C[C@@H](O)[C@@H]1/C=C/[C@@H](O)CCc1sc2ccccc2c1Cl` [6(a), (Z)-7-{(1R,2R,3R,5S)-2-[(E)-(S)-5-(3-Chlorobenzo[b]thiophen-2-yl)-3-hydroxypent-1-enyl]-3-hydroxy-5-oxocyclopentyl}hept-5-enoic acid allyl ester], the ocular hypotensive effect entry in assay [1] was “pronounced ocular hypotensive effect”.

For the compound `O=C(O)CCC/C=C\C[C@H]1C(=O)C[C@@H](O)[C@@H]1/C=C/[C@@H](O)CCc1sc2ccccc2c1Cl` [7(a), (Z)-7-{(1R,2R,3R,5S)-2-[(E)-(S)-5-(3-Chlorobenzo[b]thiophen-2-yl)-3-hydroxypent-1-enyl]-3-hydroxy-5-oxocyclopentyl}hept-5-enoic acid], the ocular hypotensive effect entry in assay [2] is on record as “pronounced ocular hypotensive effect”.
